Biological target: T1, PvPMT (Plasmodium vivax, UniProt A5K867)
T1 sequence (A5K867 1-264): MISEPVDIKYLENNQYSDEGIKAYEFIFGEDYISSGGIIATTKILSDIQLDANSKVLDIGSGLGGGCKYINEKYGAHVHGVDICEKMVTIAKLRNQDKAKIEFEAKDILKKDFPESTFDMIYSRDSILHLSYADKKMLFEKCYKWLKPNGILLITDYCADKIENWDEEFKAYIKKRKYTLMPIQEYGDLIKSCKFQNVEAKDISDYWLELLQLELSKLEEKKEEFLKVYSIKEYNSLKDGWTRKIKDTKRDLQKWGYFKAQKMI
Assay: radiometric PMT transmethylation assay, inhibition of PvPMT
Type: biochemical
Conditions: P-Etn 2 mM, SAM 1.5 mM; inhibitor 0, 100, 500, 1000 μM; read-out: IC50, inhibition of PvPMT activity
Experimental: Figure 3 Amodiaquine (AQ) and NSC158011 inhibit the activity of PvPMT and PkPMT. Enzyme inhibition assays with different concentrations of Amodiaquine (AQ), NSC158011 and Chloroquine (CQ) were carried out at constant P-Etn (2 mM) and SAM (1.5 mM) concentrations. The activity in the absence of any drug was taken as 100% and % enzyme activity was calculated in the presence of different drug concentrations (100, 500, 1000 μM). To determine the concentration that results in 50% inhibition of enzyme activity (IC50), the data were fitted to a non-linear regression analysis in the following equation Y = 100/(1 + ([X]/IC50)), where Y is % enzyme activity and X is drug concentration using Graph pad software.
For enzyme kinetics studies recombinant histidine-tagged proteins were expressed using 1 mM IPTG for 4 h, purified using Ni-affinity purification and dialyzed. As expected, purified proteins migrated in SDS-PAGE gels at approximately 31 kDa. The purified proteins were stored in HEPES-KOH buffer (pH 7.4) at 4°C and were assayed within a month of purification. During this time, the integrity of the protein was assessed by SDS-PAGE. The kinetic properties of enzymes were assessed using radiometric assay wherein incorporation of radioactive labeled methyl donor (100nCi [methyl-^14C] SAM, Perkin elmer NEC363010UC) or (200nCi [methyl-^3H] SAM, Perkin Elmer NET155H250UC) was measured. […]

Compound: CCN(CC)Cc1cc(Nc2ccnc3cc(Cl)ccc23)ccc1O [AQ, amodiaquine]
- IC50: 220 µM
